Results: publication PMC4368859 (International Journal of Neuropsychopharmacology, 2014)
“And” between values parts separate entries of the source, which are not always exact repeats. Equal entries are not always repeated.

Key:
[1] = system: [^3H]-cocaine uptake in hCMEC/D3 cells; type: cell-based, human
[2] = ref Gatley et al., 1994; Chow et al., 2001; cited from earlier work
[3] = system: cocaine transporter in hCMEC/D3 cells; test: trans-stimulation of [^3H]-cocaine exit from hCMEC/D3 cells; settings: 10 µM unlabeled compound in KH buffer after 5 minutes loading; vs control
[4] = system: OCTs; test: MPP+ transport in hCMEC/D3 cells; type: cell-based, human; settings: TEA 2mM, data not shown
[5] = system: hCMEC/D3 cells; test: cocaine uptake in hCMEC/D3 cells; type: in vitro ADME, human
[6] = system: mouse luminal BBB; test: cocaine brain transport by in situ mouse carotid perfusion; type: in vivo; settings: for Brain transport (K in): 9nM; for decrease in [^3H]-cocaine transport by unlabeled cocaine: unlabeled cocaine 10mM, mouse BBB
[7] = pKa and ionised/neutral fraction of the drug as a function of pH; type: physicochemical
[8] = in water; ref Lu et al., 2007; cited from earlier work
[9] = in vivo, concentrations less than K m

CN1[C@H]2CC[C@@H]1[C@@H](C(=O)O)[C@@H](OC(=O)c1ccccc1)C2 [Benzoylecgonine]
Relative uptake of [^3H]-cocaine [1]: 104.1±3.0% and 94.2±14.9% and 72.0±11.4 %
brain uptake [2]: no significant brain uptake
trans-stimulation of [^3H]-cocaine exit (trans-efflux zero) [3]: lack of a trans-stimulation effect

COc1ccc2c3c1O[C@H]1[C@@H](O)C=C[C@H]4[C@@H](C2)N(C)CC[C@@]341 [Codeine]
Relative uptake of [^3H]-cocaine [1]: 63.4±5.0 %

CCCC(C(=O)c1ccc2c(c1)OCO2)N1CCCC1 (stereo not drawn) [MDPV, 3,4-methylenedioxypyrovalerone]
Relative uptake of [^3H]-cocaine [1]: 18.1±0.4 %
trans-stimulation of [^3H]-cocaine exit (trans-efflux zero) [3]: strongly stimulated

C=CCN1CC[C@]23c4c5ccc(O)c4O[C@H]2C(=O)CC[C@@]3(O)[C@H]1C5 [Naloxone]
Relative uptake of [^3H]-cocaine [1]: 28.3±0.9 %

CN1CCC[C@H]1c1cccnc1 [Nicotine]
trans-stimulation of [^3H]-cocaine exit (trans-efflux zero) [3]: strongly stimulated

CC[N+](CC)(CC)CC [TEA, tetraethylammonium]
Relative uptake of [^3H]-cocaine [1]: 120.6±9.8%
effect on MPP^+ transport [4]: significantly inhibited

COc1ccc(CCN(C)CCCC(C#N)(c2ccc(OC)c(OC)c2)C(C)C)cc1OC (stereo not drawn) [Verapamil]
Relative uptake of [^3H]-cocaine [1]: 3.7±0.2 %

COC(=O)[C@H]1[C@@H](OC(=O)c2ccccc2)C[C@@H]2CC[C@H]1N2C [cocaine, (−)-Cocaine]
K m of carrier-mediated uptake ([5]; KH buffer pH 7.40, 37°C, 5 minutes, 0.05–10mM): 123 ± 23 µM
increase in uptake after NH4Cl prepulse (acidification) ([5]; NH4Cl 30mM prepulse): 1.85 fold
effect of NH4Cl pulse (alkalinization) on uptake ([5]; NH4Cl 30mM, pHe 7.40): significantly decreased
K passive (passive diffusion) ([5]; pH 7.40): 1.09 ± 0.09 µL/min/mg
increase in uptake vs pHe 5.40 ([5]; pHe 6.40): 2.5 fold
increase in uptake vs pHe 5.40 ([5]; pHe 7.40): 4.6 fold
transport in NMDG-buffer relative to KH buffer control ([5]; sodium replaced, pHe 7.40, 5 minutes, control 100.0±9.0%): 97.0±9.7%
Brain transport (K in) ([6]; C57Bl/6 mice, 60 seconds, Krebs-carbonate pH 7.40): 19 ± 2 µL/s/g
Brain transport (K in) ([6]; DBA mice, 60 seconds, Krebs-carbonate pH 7.40): 21 ± 2 µL/s/g
Brain transport (K in) ([6]; Fvb [Oct1,Oct2(−/−)] mice, 60 seconds): 19 ± 2 µL/s/g
Brain transport (K in) ([6]; Fvb wild-type mice, 60 seconds, Krebs-carbonate pH 7.40): 20 ± 2 µL/s/g
Brain transport (K in) ([6]; Swiss mice, 60 seconds, Krebs-carbonate pH 7.40): 20 ± 2 µL/s/g
K passive (passive diffusion) ([6]; Swiss mice, pHe 7.40): 4.5±1.0 µL/sec/g and ~ 4.5 µL/sec/g
apparent K m of carrier-mediated brain flux ([6]; Swiss mice, pHe 7.40): 4500 ± 1800 µM
V max of carrier-mediated brain flux ([6]; Swiss mice, pHe 7.40, per g of brain): 127.2 ± 34.5 nmol/s/g
total brain extraction ([6]; compared with the vascular flow marker diazepam): about 47%
concentration at which passive diffusion and carrier-mediated flux are equal ([6]; from Equation 7): around 24 mM
carrier-mediated influx relative to passive diffusion [6, 9]: 3.4 times
carrier-mediated transport rate [6, 9]: ~ 15.5 µL/sec/g
increase in brain transport vs pHe 5.40 ([6]; mice, 60 seconds, pHe 6.40): 4.7 fold
increase in brain transport vs pHe 5.40 ([6]; mice, 60 seconds, pHe 7.40): 16.9 fold
reduction in brain transport by NH4Cl pulse ([6]; mice, NH4Cl 30mM, pHe 7.40, 60 seconds): 1.8 fold
decrease in brain transport with HEPES-buffer vs Krebs-carbonate buffer ([6]; mice, carbonate-free HEPES buffer): 1.8 fold
increase in K in with mannitol perfusion buffer vs Krebs-carbonate ([6]; mice, sodium-free and chloride-free buffer): 1.35 fold
effect of lithium (Na+-free) buffer on brain transport ([6]; mice, vs regular Krebs-carbonate buffer): no significant change
net brain transport rate (K in) under unsaturated conditions ([6]; pharmacological concentration range): about 20 µL/sec/g
decrease in [^3H]-cocaine transport by unlabeled cocaine ([6]; pHe 5.40): 1.8 fold
decrease in [^3H]-cocaine transport by unlabeled cocaine ([6]; pHe 6.40): 2.0 fold
decrease in [^3H]-cocaine transport by unlabeled cocaine ([6]; pHe 7.40): 1.9 fold
positively charged fraction ([7]; pH 7.4): 94%
uncharged fraction ([7]; pH 7.4): 6%
neutral fraction ([7]; pHe 5.40): 0.06%
cationic form ([7]; pHe 5.40 or 6.40): > 99.4%
neutral fraction ([7]; pHe 6.40): 0.6%
neutral fraction ([7]; pHe 7.40): 5.9%
basic pK a [8]: 8.6

Ecgonine
Relative uptake of [^3H]-cocaine [1]: 103.9±8.7% and 93.2±2.5% and 75.3±5.0 %
